Assay results taken from patent US10030020B2, “Spirocycle compounds and methods of making and using same” (Abide Therapeutics, Inc., priority 2016, dated 2018).

Legend:
[1] = biological target: T1, MAGL (Mus musculus (Mouse), UniProt O35678); assay: Mouse brain proteomes from inhibitor treated mice (oral gavage, sacrificed 4 h after administration, ABPP analysis); format: in vivo, mouse (C57Bl/6J); conditions: 5 mg/kg oral gavage
How it was run: (§1)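 Values give % inhibition in brain after a 5 mg/kg oral gavage dose to wild-type C57Bl/6J mice, with vehicle e.g. PEG400/Ethanol/PBS (7/2/1). Animals were killed 4 h post-dose and brain proteome activity was read by ABPP.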

[2] = biological target: T1, MAGL; assay: In vitro competitive activity-based protein profiling (mouse brain membrane fraction or cell lysates), MAGL band; format: biochemical; conditions: mouse proteome; for inhibition at 1 µM: read-out: MAGL % Inh 1 μM (mouse); for IC50: competitive ABPP
Description: In Vitro Competitive Activity-Based Protein Profiling.
Proteomes (mouse brain membrane fraction or cell lysates) (50 μL, 1.0 mg/mL total protein concentration) were preincubated with varying concentrations of inhibitors at 37° C. After 30 min, FP—Rh (1.0 μL, 50 μM in DMSO) was added and the mixture was incubated for another 30 min at 37° C. Reactions were quenched with SDS loading buffer (50 μL-4×) and run on SDS-PAGE.

[3] = biological target: T2, FAAH (Mus musculus (Mouse), UniProt O08914); assay: Mouse brain proteomes from inhibitor treated mice (oral gavage, sacrificed 4 h after administration, ABPP analysis), FAAH; format: in vivo, mouse (C57Bl/6J); conditions: 5 mg/kg oral gavage
How it was run: as §1

[4] = biological target: T3, ABHD6 (Mus musculus (Mouse), UniProt Q8R2Y0); assay: In vitro competitive activity-based protein profiling (mouse brain membrane fraction or cell lysates), ABHD6 band; format: biochemical; conditions: mouse proteome; for inhibition at 1 µM: read-out: ABHD6 % Inh 1 μM (mouse); for IC50: competitive ABPP
How it was run: (§2)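 Mouse proteome samples (brain membrane fraction or cell lysate, 1.0 mg/mL protein) were pretreated with varying inhibitor concentrations and subsequently probed with fluorophosphonate-rhodamine, each step lasting 30 min at 37° C. Labelled proteins were separated by SDS-PAGE, and band fluorescence was imaged and quantified.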

[5] = biological target: T2, FAAH; assay: In vitro competitive activity-based protein profiling (mouse brain membrane fraction or cell lysates), FAAH band; format: biochemical; conditions: mouse proteome; for inhibition at 1 µM: read-out: FAAH % Inh 1 μM (mouse); for IC50: competitive ABPP
How it was run: as §2

[6] = biological target: T3, ABHD6; assay: Mouse brain proteomes from inhibitor treated mice (oral gavage, sacrificed 4 h after administration, ABPP analysis), ABHD6; format: in vivo, mouse (C57Bl/6J); conditions: 5 mg/kg oral gavage
How it was run: as §1

T2 sequence (O08914 whole entry): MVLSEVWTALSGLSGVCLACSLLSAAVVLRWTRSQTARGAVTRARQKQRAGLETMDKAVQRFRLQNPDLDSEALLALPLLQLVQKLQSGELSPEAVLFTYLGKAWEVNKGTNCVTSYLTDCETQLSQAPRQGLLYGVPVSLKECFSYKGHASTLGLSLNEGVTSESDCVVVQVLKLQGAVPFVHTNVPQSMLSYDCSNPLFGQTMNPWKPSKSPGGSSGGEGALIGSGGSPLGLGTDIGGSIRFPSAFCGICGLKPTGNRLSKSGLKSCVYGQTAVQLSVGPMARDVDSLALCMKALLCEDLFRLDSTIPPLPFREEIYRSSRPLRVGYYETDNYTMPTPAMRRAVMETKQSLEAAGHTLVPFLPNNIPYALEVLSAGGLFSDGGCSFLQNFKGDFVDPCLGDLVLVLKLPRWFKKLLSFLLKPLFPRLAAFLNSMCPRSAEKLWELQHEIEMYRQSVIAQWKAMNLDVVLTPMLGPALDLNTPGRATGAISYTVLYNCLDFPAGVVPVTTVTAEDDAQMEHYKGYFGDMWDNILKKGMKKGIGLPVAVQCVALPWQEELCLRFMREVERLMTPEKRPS
T3 sequence (Q8R2Y0 whole entry): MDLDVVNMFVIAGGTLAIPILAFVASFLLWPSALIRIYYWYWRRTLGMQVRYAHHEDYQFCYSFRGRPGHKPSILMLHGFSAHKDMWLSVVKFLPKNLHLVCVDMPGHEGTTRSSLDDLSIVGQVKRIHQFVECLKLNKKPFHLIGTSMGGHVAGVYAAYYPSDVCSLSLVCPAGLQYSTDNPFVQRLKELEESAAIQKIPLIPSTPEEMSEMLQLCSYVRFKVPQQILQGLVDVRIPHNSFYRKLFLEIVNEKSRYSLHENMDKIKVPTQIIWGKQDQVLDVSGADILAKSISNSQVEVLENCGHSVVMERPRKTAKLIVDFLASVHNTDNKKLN
T1 sequence (O35678 whole entry): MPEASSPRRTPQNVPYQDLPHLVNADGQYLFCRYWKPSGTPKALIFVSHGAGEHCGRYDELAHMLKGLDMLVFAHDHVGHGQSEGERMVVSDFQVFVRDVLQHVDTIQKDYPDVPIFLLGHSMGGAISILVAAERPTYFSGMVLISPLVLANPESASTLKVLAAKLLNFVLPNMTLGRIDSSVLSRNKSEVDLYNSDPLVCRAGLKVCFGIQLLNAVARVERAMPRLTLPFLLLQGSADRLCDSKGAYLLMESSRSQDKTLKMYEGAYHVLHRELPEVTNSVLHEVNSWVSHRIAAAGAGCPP

MAGL % Inh 5 mg/kg (mouse) [1] | inhibition at 1 µM [2] | IC50 [2] | FAAH % Inh 5 mg/kg (mouse) [3] | inhibition at 1 µM [4] | IC50 [4] | inhibition at 1 µM [5] | IC50 [5] | ABHD6 % Inh 5 mg/kg (mouse) [6] | Structure (SMILES)
### (### is ≥75%) | > 75% | < 100 nM | # (# is <25%) | < 25% | > 1000 nM | < 25% | > 1000 nM | # (# is <25%) | O=C(OC(C(F)(F)F)C(F)(F)F)N1CCC2(CCCN2Cc2cc(N3CCCC3)cc(C(F)(F)F)c2)CC1 [Example 36, 1,1,1,3,3,3-Hexafluoropropan-2-yl 1-(3-(pyrrolidin-1-yl)-5-(trifluoromethyl)benzyl)-1,8-diazaspiro[4.5]decane-8-carboxylate]
### (### is ≥75%) | > 75% | < 100 nM | # (# is <25%) | < 25% | > 1000 nM | < 25% | > 1000 nM | # (# is <25%) | Cc1c(CN2CCCC23CCN(C(=O)OC(C(F)(F)F)C(F)(F)F)CC3)cccc1N1CC2CCC(C1)O2 [Example 86, 1,1,1,3,3,3-Hexafluoropropan-2-yl 1-(3-(8-oxa-3-azabicyclo[3.2.1]octan-3-yl)-2-methylbenzyl)-1,8-diazaspiro[4.5]decane-8-carboxylate]
# (# is <25%) | > 75% | < 100 nM | # (# is <25%) | < 25% | > 1000 nM | < 25% | > 1000 nM | # (# is <25%) | CC1(C)CC2(CCN(C(=O)OC(C(F)(F)F)C(F)(F)F)CC2)CN1Cc1ccc(C(F)(F)F)cc1N1CCC2(CCOCC2)C1 [Example 52, 1,1,1,3,3,3-Hexafluoropropan-2-yl 2-(2-(8-oxa-2-azaspiro[4.5]decan-2-yl)-4-(trifluoromethyl)benzyl)-3,3-dimethyl-2,8-diazaspiro[4.5]decane-8-carboxylate]
### (### is ≥75%) | > 75% | < 100 nM | # (# is <25%) | < 25% | > 1000 nM | < 25% | > 1000 nM | # (# is <25%) | O=C(OC(C(F)(F)F)C(F)(F)F)N1CCC2(CCCN2Cc2ccc(Cl)cc2OCCF)CC1 [Example 30, 1,1,1,3,3,3-Hexafluoropropan-2-yl 1-(4-chloro-2-(2-fluoroethoxy)benzyl)-1,8-diazaspiro[4.5]decane-8-carboxylate]
### (### is ≥75%) | > 75% | < 100 nM | # (# is <25%) | ≥ 75% | 100 to 1000 nM | < 25% | > 1000 nM | ### (### is ≥75%) | CCc1cc(CN2CCC3(CCN(C(=O)OC(C(F)(F)F)C(F)(F)F)CC3)C2)ccc1F [Example 152, 1,1,1,3,3,3-Hexafluoropropan-2-yl 2-(3-ethyl-4-fluorobenzyl)-2,8-diazaspiro[4.5]decane-8-carboxylate]
### (### is ≥75%) | > 75% | < 100 nM | # (# is <25%) | < 25% | > 1000 nM | < 25% | > 1000 nM | # (# is <25%) | O=C(OC(C(F)(F)F)C(F)(F)F)N1CCC2(CCCN2Cc2cccc(N3CC4CCC(C3)O4)c2Cl)CC1 [Example 82, 1,1,1,3,3,3-Hexafluoropropan-2-yl 1-(3-(8-oxa-3-azabicyclo[3.2.1]octan-3-yl)-2-chlorobenzyl)-1,8-diazaspiro[4.5]decane-8-carboxylate]
### (### is ≥75%) | > 75% | < 100 nM | # (# is <25%) | < 25% | > 1000 nM | < 25% | > 1000 nM | # (# is <25%) | O=C(OC(C(F)(F)F)C(F)(F)F)N1CCC2(CCCN2Cc2cccc(N3CCCC3)c2Cl)CC1 [Example 81, 1,1,1,3,3,3-Hexafluoropropan-2-yl 1-(2-chloro-3-(pyrrolidin-1-yl)benzyl)-1,8-diazaspiro[4.5]decane-8-carboxylate]

Structure (SMILES) | MAGL % Inh 5 mg/kg (mouse) [1] | inhibition at 1 µM [2] | IC50 [2] | FAAH % Inh 5 mg/kg (mouse) [3] | inhibition at 1 µM [4] | IC50 [4] | inhibition at 1 µM [5] | IC50 [5] | ABHD6 % Inh 5 mg/kg (mouse) [6]
O=C(OC(C(F)(F)F)C(F)(F)F)N1CCC2(CCCN2Cc2ccc(Cl)cc2)CC1 [Example 62, 1,1,1,3,3,3-Hexafluoropropan-2-yl 1-(4-chlorobenzyl)-1,8-diazaspiro[4.5]decane-8-carboxylate] | ### (### is ≥75%) | > 75% | < 100 nM | ## (## is equal to or greater than 25% but less than 75%) | < 25% | > 1000 nM | < 25% | > 1000 nM | ## (## is equal to or greater than 25% but less than 75%)
CC(=O)NC1CCN(c2cc(Cl)ccc2CN2CCCC23CCN(C(=O)OC(C(F)(F)F)C(F)(F)F)CC3)CC1 [Example 104, 1,1,1,3,3,3-Hexafluoropropan-2-yl 1-(2-(4-acetamidopiperidin-1-yl)-4-chlorobenzyl)-1,8-diazaspiro[4.5]decane-8-carboxylate] | ## (## is equal to or greater than 25% but less than 75%) | > 75% | < 100 nM | # (# is <25%) | < 25% | > 1000 nM | 25 to 75% | > 1000 nM | # (# is <25%)
O=C(OC(C(F)(F)F)C(F)(F)F)N1CCC2(CCN(Cc3ccc(C(F)(F)F)cc3N3CCCC3)C2)CC1 [Example 72, 1,1,1,3,3,3-Hexafluoropropan-2-yl 2-(2-(pyrrolidin-1-yl)-4-(trifluoromethyl)benzyl)-2,8-diazaspiro[4.5]decane-8-carboxylate] | ## (## is equal to or greater than 25% but less than 75%) | > 75% | < 100 nM | # (# is <25%) | < 25% | > 1000 nM | < 25% | > 1000 nM | # (# is <25%)
O=C(OC(C(F)(F)F)C(F)(F)F)N1CCC2(CCCN2Cc2ccc(OCCF)cc2)CC1 [Example 31, 1,1,1,3,3,3-Hexafluoropropan-2-yl 1-(4-(2-fluoroethoxy)benzyl)-1,8-diazaspiro[4.5]decane-8-carboxylate] | ### (### is ≥75%) | > 75% | < 100 nM | # (# is <25%) | < 25% | > 1000 nM | < 25% | > 1000 nM | ## (## is equal to or greater than 25% but less than 75%)
CC1(C)CC2(CCN(C(=O)OC(C(F)(F)F)C(F)(F)F)CC2)CN1Cc1ccc(Cl)cc1N1CCOCC1 [Example 50, 1,1,1,3,3,3-Hexafluoropropan-2-yl 2-(4-chloro-2-morpholinobenzyl)-3,3-dimethyl-2,8-diazaspiro[4.5]decane-8-carboxylate] | ## (## is equal to or greater than 25% but less than 75%) | > 75% | < 100 nM | # (# is <25%) | 25 to 75% | > 1000 nM | < 25% | > 1000 nM | # (# is <25%)
O=C(OC(C(F)(F)F)C(F)(F)F)N1CCC2(CCCN2Cc2cc(Cl)cc(N3CCOCC3)c2)CC1 [Example 33, 1,1,1,3,3,3-Hexafluoropropan-2-yl 1-(3-chloro-5-morpholinobenzyl)-1,8-diazaspiro[4.5]decane-8-carboxylate] | ### (### is ≥75%) | > 75% | < 100 nM | ## (## is equal to or greater than 25% but less than 75%) | < 25% | > 1000 nM | < 25% | > 1000 nM | # (# is <25%)
O=C(OC(C(F)(F)F)C(F)(F)F)N1CCC2(CCCN2Cc2cc(OC3CCOCC3)cc(C(F)(F)F)c2)CC1 [Example 170, 1,1,1,3,3,3-Hexafluoropropan-2-yl 1-(3-(tetrahydro-2H-pyran-4-yloxy)-5-(trifluoromethyl)benzyl)-1,8-diazaspiro[4.5]decane-8-carboxylate] | ## (## is equal to or greater than 25% but less than 75%) | > 75% | < 100 nM | # (# is <25%) | < 25% | > 1000 nM | < 25% | > 1000 nM | # (# is <25%)
